Laboratory results: PMC10425210 (The Journal of Clinical Investigation, 2023)
Several values for one entry are separate records, joined by “and”; a condition that tells them apart may be missing. Equal values may be shown once. Entries after “also recorded” stand apart in the source; their conditions may differ. Read-outs that look alike come from different tables or passages of the source.

System: SHIV-SF162P3
Assay type: in vivo, rhesus macaques

`CC(C)(C#Cc1ccc(-c2ccc(Cl)c3c(NS(C)(=O)=O)nn(CC(F)(F)F)c23)c([C@H](Cc2cc(F)cc(F)c2)NC(=O)Cn2nc(C(F)(F)F)c3c2C(F)(F)[C@@H]2C[C@H]32)n1)S(C)(=O)=O` [LEN, Lenacapavir] was tested, and the “Intact SHIV DNA / 10M PBMC” value (animal V430, 50 mg/kg, Wk 2 post challenge) was 1 / 10M PBMC, the “Intact SHIV DNA / 10M PBMC” value (animal V430, 50 mg/kg, Wk 10 post challenge) was 1 / 10M PBMC and the “Plasma SHIV RNA” value (animal V430, 50 mg/kg, week 0 post challenge) was 62 copies per mL. The “Plasma SHIV RNA” value (animal V430, 50 mg/kg, week 1 post challenge) was 62 copies per mL, the “Plasma SHIV RNA” value (animal V430, 50 mg/kg, week 2 post challenge) was 62 copies per mL and the “Plasma SHIV RNA” value (animal V430, 50 mg/kg, week 3 post challenge) was 62 copies per mL. For the same compound, the “Plasma SHIV RNA” value (animal V430, 50 mg/kg, week 4 post challenge) was 62 copies per mL, the “Plasma SHIV RNA” value (animal V430, 50 mg/kg, week 5 post challenge) was 62 copies per mL and the “Plasma SHIV RNA” value (animal V430, 50 mg/kg, week 6 post challenge) was 62 copies per mL. For the same compound, the “Plasma SHIV RNA” value (animal V430, 50 mg/kg, week 7 post challenge) was 62 copies per mL, the “Plasma SHIV RNA” value (animal V430, 50 mg/kg, week 8 post challenge) was 62 copies per mL and the “Plasma SHIV RNA” value (animal V430, 50 mg/kg, week 9 post challenge) was 62 copies per mL. For the same compound, the “Plasma SHIV RNA” value (animal V430, 50 mg/kg, week 10 post challenge) was 62 copies per mL, the “Plasma SHIV RNA” value (animal V430, 50 mg/kg, week 11 post challenge) was 62 copies per mL and the “Plasma SHIV RNA” value (animal V430, 50 mg/kg, week 12 post challenge) was 62 copies per mL. The “Plasma SHIV RNA” value (animal V430, 50 mg/kg, week 13 post challenge) was 62 copies per mL, the “Plasma SHIV RNA” value (animal V430, 50 mg/kg, week 14 post challenge) was 62 copies per mL and the “Plasma SHIV RNA” value (animal V430, 50 mg/kg, week 15 post challenge) was 62 copies per mL. For the same compound, the “Plasma SHIV RNA” value (animal V430, 50 mg/kg, week 16 post challenge) was 62 copies per mL, the “Plasma SHIV RNA” value (animal V430, 50 mg/kg, week 17 post challenge) was 62 copies per mL and the “Plasma SHIV RNA” value (animal V430, 50 mg/kg, week 18 post challenge) was 62 copies per mL. For the same compound, the Challenge outcome (animal V435, 75 mg/kg) was “Infected”, the “Intact SHIV DNA / 10M PBMC” value (animal V435, 75 mg/kg, Wk 2 post challenge) was 1890.13 / 10M PBMC and the “Plasma SHIV RNA” value (animal V435, 75 mg/kg, week 0 post challenge) was 62 copies per mL. For the same compound, the “Plasma SHIV RNA” value (animal V435, 75 mg/kg, week 1 post challenge) was 62 copies per mL, the “Plasma SHIV RNA” value (animal V435, 75 mg/kg, week 2 post challenge) was 756278 copies per mL and the “Plasma SHIV RNA” value (animal V435, 75 mg/kg, week 6 post challenge) was 242042 copies per mL. For the same compound, the “Plasma SHIV RNA” value (animal V435, 75 mg/kg, week 7 post challenge) was 286179 copies per mL, the “Plasma SHIV RNA” value (animal V435, 75 mg/kg, week 9 post challenge) was 32896 copies per mL and the “Plasma SHIV RNA” value (animal V435, 75 mg/kg, week 10 post challenge) was 40477 copies per mL. The “Plasma SHIV RNA” value (animal V435, 75 mg/kg, week 11 post challenge) was 31394 copies per mL, the “Plasma SHIV RNA” value (animal V435, 75 mg/kg, week 12 post challenge) was 7502 copies per mL and the “Plasma SHIV RNA” value (animal V435, 75 mg/kg, week 13 post challenge) was 16622 copies per mL. The “Plasma SHIV RNA” value (animal V435, 75 mg/kg, week 14 post challenge) was 6647 copies per mL, the “Plasma SHIV RNA” value (animal V435, 75 mg/kg, week 15 post challenge) was 46117 copies per mL and the “Plasma SHIV RNA” value (animal V435, 75 mg/kg, week 16 post challenge) was 21357 copies per mL. For the same compound, the “Plasma SHIV RNA” value (animal V435, 75 mg/kg, week 17 post challenge) was 55828 copies per mL, the “Plasma SHIV RNA” value (animal V435, 75 mg/kg, week 18 post challenge) was 34073 copies per mL and the “Plasma SHIV RNA” value (animal V435, 75 mg/kg, week 19 post challenge) was 913 copies per mL. The “Plasma SHIV RNA” value (animal V435, 75 mg/kg, week 20 post challenge) was 62 copies per mL, the Challenge outcome (animal V470, 50 mg/kg) was “Not infected” and the “Intact SHIV DNA / 10M PBMC” value (animal V470, 50 mg/kg, Wk 2 post challenge) was 1 / 10M PBMC. The “Intact SHIV DNA / 10M PBMC” value (animal V470, 50 mg/kg, Wk 10 post challenge) was 1 / 10M PBMC, the “Plasma SHIV RNA” value (animal V470, 50 mg/kg, week 0 post challenge) was 62 copies per mL and the “Plasma SHIV RNA” value (animal V470, 50 mg/kg, week 1 post challenge) was 62 copies per mL. For the same compound, the “Plasma SHIV RNA” value (animal V470, 50 mg/kg, week 2 post challenge) was 62 copies per mL, the “Plasma SHIV RNA” value (animal V470, 50 mg/kg, week 3 post challenge) was 62 copies per mL and the “Plasma SHIV RNA” value (animal V470, 50 mg/kg, week 4 post challenge) was 62 copies per mL. The “Plasma SHIV RNA” value (animal V470, 50 mg/kg, week 5 post challenge) was 62 copies per mL, the “Plasma SHIV RNA” value (animal V470, 50 mg/kg, week 6 post challenge) was 62 copies per mL and the “Plasma SHIV RNA” value (animal V470, 50 mg/kg, week 7 post challenge) was 62 copies per mL. For the same compound, the “Plasma SHIV RNA” value (animal V470, 50 mg/kg, week 8 post challenge) was 62 copies per mL, the “Plasma SHIV RNA” value (animal V470, 50 mg/kg, week 9 post challenge) was 62 copies per mL and the “Plasma SHIV RNA” value (animal V470, 50 mg/kg, week 10 post challenge) was 62 copies per mL. The “Plasma SHIV RNA” value (animal V470, 50 mg/kg, week 11 post challenge) was 62 copies per mL, the “Plasma SHIV RNA” value (animal V470, 50 mg/kg, week 12 post challenge) was 62 copies per mL and the “Plasma SHIV RNA” value (animal V470, 50 mg/kg, week 13 post challenge) was 62 copies per mL. For the same compound, the “Plasma SHIV RNA” value (animal V470, 50 mg/kg, week 14 post challenge) was 62 copies per mL, the “Plasma SHIV RNA” value (animal V470, 50 mg/kg, week 15 post challenge) was 62 copies per mL and the “Plasma SHIV RNA” value (animal V470, 50 mg/kg, week 16 post challenge) was 62 copies per mL. The “Plasma SHIV RNA” value (animal V470, 50 mg/kg, week 17 post challenge) was 62 copies per mL, the “Plasma SHIV RNA” value (animal V470, 50 mg/kg, week 18 post challenge) was 62 copies per mL and the “reduction of the rate of infection per exposure” value (compared with the untreated group) was “more than 2 fold”. For the same compound, the “intact proviral DNA assay (IPDA) signal” value (eight SHIV-negative animals, weeks 2 and 10) was “No signal was detected”, the “Peak Plasma SHIV RNA” value (individual LEN-dosed infected animals) was 299412 copies/mL and 1140343 copies/mL and 35193943 copies/mL and the “animals viremic after challenge” value (of 11 LEN-dosed animals, 100 TCID50, 2 weeks after challenge) was 3 animals. The “anti-capsid (p27) antibody ELISA” value (other 8 animals, through week 10 after challenge) was “no antibodies were detectable”, the “LEN-dosed animals with confirmed uninfected status” value (plasma PCR, serology, IPDA) was 8 of 11 and the Challenge outcome (rhesus monkey, in vivo) was “Not infected”. For the same compound, the “Intact SHIV DNA / 10M PBMC” value (rhesus monkey, in vivo) was 1 / 10M PBMC, the “Plasma SHIV RNA” value (rhesus monkey, in vivo) was 62 copies per mL and the “resistance emergence, capsid sequence of plasma virus” value (rhesus monkey, in vivo) was “no emerging mutations in capsid; also recorded: No resistance was selected”. For the same compound, the “peak viremia, LEN-dosed infected vs untreated animals” value (same viral inoculum) was “no significant differences”.
